Experimental data reported in ChEMBL document CHEMBL3301361, “Experimental in vitro DMPK and physicochemical data on a set of publicly disclosed compounds”.
Values after ≈ are worked out from the molar mass of the structure shown.

Tests used:
physchem [1] = conditions: octan-1-ol/water, pH 7.4, LogD7.4
physchem [2] = conditions: pH 7.4 buffer

| logD (physchem [1]) | solubility thermodynamic (physchem [2]) [µM] | Compound |
| --- | --- | --- |
| 2 | 724 (≈ 285 µg/mL) | Cc1cnc(Nc2ccc(OCC(O)CN(C)C)cc2)nc1Nc1ccccc1 (stereo not given) |
| 2.53 | 1510 (≈ 620 µg/mL) | O=C(O)C[C@@H]1c2ccccc2C[C@H]1NC(=O)c1cc2sc(Cl)c(Cl)c2[nH]1 |
| 2.39 | 85.1 (≈ 31.6 µg/mL) | CCCCn1c(Cc2cc(OC)c(OC)c(OC)c2)nc2c(N)ncnc21 |
| 1.95 | 23.4 (≈ 5.86 µg/mL) | CN(C)c1cccc2c(S(N)(=O)=O)cccc12 |
| 2.5 | 5.6 (≈ 2.14 µg/mL) | CS(=O)(=O)c1cccc(Nc2nccc(Nc3cccc4ncoc34)n2)c1 |
| 1.94 | 46.8 (≈ 11.8 µg/mL) | CC(=O)c1noc(C)c1C(=O)Nc1nccs1 |
| 2.51 | 144 (≈ 86.1 µg/mL) | COc1cc(C(=O)NS(=O)(=O)c2ccccc2C)ccc1Cc1cn(C)c2ccc(C(=O)NCCc3ccccc3)cc12 |
| 2.3 | 25.1 (≈ 9.7 µg/mL) | N#Cc1cnn(-c2ccccc2)c1NC(=O)CN1CCN(c2ccccc2)CC1 |
| 1.97 | 0.7 (≈ 0.317 µg/mL) | O=S(=O)(Nc1ccc(S(=O)(=O)Nc2nccs2)cc1)c1ccc2c(c1)OCCO2 |
| 2.43 | 1.4 (≈ 0.592 µg/mL) | CCOC(=O)c1ccccc1-c1csc(NS(=O)(=O)c2ccc(Cl)cc2)n1 |
| 2.06 | 380 (≈ 112 µg/mL) | FC(F)(F)c1nnc2ccc(NCc3cccnc3)nn12 |
| 1.9 | 25.1 (≈ 8.44 µg/mL) | CC(C)(C)c1cc2nc3c(c(O)n2n1)CN(Cc1ccccc1)C3=O |
| 2.56 | 7.8 (≈ 3.54 µg/mL) | COc1ccc(S(=O)(=O)Nc2ccc(/C=C/C(=O)Nc3ccccc3N)cc2)cc1OC |
| 2.36 | 724 (≈ 158 µg/mL) | CNc1ncc(C(=O)c2ccccc2)s1 |
| 2.25 | 178 (≈ 41.7 µg/mL) | Oc1ncnc2scc(-c3ccsc3)c12 |
| 2.42 | 380 (≈ 119 µg/mL) | COc1ccc(C(=O)C2CCN(C(=O)c3ccco3)CC2)cc1 |
| 2.39 | 4.8 (≈ 2.08 µg/mL) | NC(=O)c1sc(-c2ccsc2)cc1NS(=O)(=O)c1ccc(C(F)(F)F)cc1 |
| 1.95 | 37.2 (≈ 10.6 µg/mL) | CCc1cccc2c(C#N)cn(CC(=O)NCCOC)c12 |
| 2.3 | 224 (≈ 56.3 µg/mL) | COc1cccc2c(O)cc(-c3ccccc3)nc12 |
| 2.12 | 170 (≈ 50.1 µg/mL) | Nc1nc(-c2ccccn2)nc(N)c1Cc1ccccc1F |
| 2.34 | 18.2 (≈ 6.08 µg/mL) | FC(F)(F)c1nnc2ccc(NCn3nnc4ccccc43)nn12 |
| 2.11 | 151 (≈ 64.5 µg/mL) | O=S(=O)(Nc1nc(-c2sccc2Cl)cs1)c1cc(Cl)ccc1Cl |
| 2.2 | 36.3 (≈ 20 µg/mL) | CC1(COc2cc(-c3cccc4c(=O)cc(N5CCOCC5)oc34)ccc2NC(=O)CN2CCOCC2)COC1 |
| 2.3 | 13.2 (≈ 6.33 µg/mL) | COc1cc(-c2cccc3c(=O)cc(N4CCOCC4)oc23)ccc1NC(=O)CN1CCOCC1 |
| 2.16 | 525 (≈ 336 µg/mL) | O=C(Nc1ccccc1-c1ccccc1)OC1CCN(CCCCCCCCCNC[C@H](O)c2ccc(O)c3[nH]c(=O)ccc23)CC1 |
| 2.1 | 14.1 (≈ 6.14 µg/mL) | CCn1c(SCC(=O)Nc2c(C#N)cnn2-c2ccccc2)nnc1-c1cccs1 |
| 2.43 | 832 (≈ 147 µg/mL) | Nc1nc(-c2ccccc2)cs1 |

| logD (physchem [1]) | solubility thermodynamic (physchem [2]) [µM] | Compound |
| --- | --- | --- |
| 2.23 | 51.3 (≈ 24.5 µg/mL) | COc1ccnc(N(C)c2ccnc(Nc3cc(N4CCOCC4)cc(N4CCOCC4)c3)n2)c1 |
| 1.91 | 372 (≈ 63.6 µg/mL) | Nc1cc(-c2ccccc2)ncn1 |
| 2.41 | 417 (≈ 107 µg/mL) | FC(F)(F)c1nnc2ccc(N3CCCC3)nn12 |
| 2.11 | 40.7 (≈ 10.8 µg/mL) | CC1C(=O)Nc2ccccc2N1C(=O)c1ccccc1 (stereo not given) |
| 2.36 | 6.6 (≈ 2.97 µg/mL) | COc1cc2ncnc(Oc3cnn(CC(=O)Nc4ccc(N(C)C)cn4)c3)c2cc1OC |
| 1.94 | 7.4 (≈ 2.01 µg/mL) | O=C(Nc1nc2c(=O)[nH]cnc2s1)c1ccccc1 |
| 2.09 | 87.1 (≈ 37.5 µg/mL) | Cc1cc(S(=O)(=O)Nc2nc(Nc3ccc(Cl)cc3)n[nH]2)c(S)cc1Cl |
| 2.34 | 4.7 (≈ 1.12 µg/mL) | O=c1cc(-c2ccc(O)cc2)[nH]c2ccccc12 |
| 2.17 | 1510 (≈ 632 µg/mL) | Cc1ccc(NC(=O)C2CC2)cc1-n1cnc2ccc(N3CCN(C)CC3)cc2c1=O |
| 2.43 | 1290 (≈ 571 µg/mL) | Cc1ccc(NC(=O)c2ccoc2)cc1-n1cnc2ccc(N3CCN(C)CC3)cc2c1=O |
| 1.87 | 57.5 (≈ 25.6 µg/mL) | Cc1ccc(C(=O)Nc2ccon2)cc1-n1cnc2ccc(N3CCN(C)CC3)cc2c1=O |
| 2.36 | 91.2 (≈ 36.2 µg/mL) | CN1CCN(c2ccc(NC(=O)c3nnc(Nc4ccccc4F)o3)cn2)CC1 |
| 2.51 | 6.2 (≈ 2.63 µg/mL) | CC(=O)N1CCN(c2ccc(NC(=O)c3nnc(Nc4ccccc4F)o3)cc2)CC1 |
| 2.33 | 38.9 (≈ 8.49 µg/mL) | NC(=O)c1sc(-c2ccccc2)cc1N |
| 2.16 | 282 (≈ 137 µg/mL) | COc1cc2ncnc(Nc3cccc(Cl)c3F)c2cc1CN(C)C1(C(N)=O)CCN(C)CC1 |
| 1.86 | 813 (≈ 232 µg/mL) | Cc1cc(CNc2nccc(Nc3cc(C)[nH]n3)n2)on1 |
| 2.5 | 63.1 (≈ 19.6 µg/mL) | Cc1cc(Nc2ccnc(NCc3cc(C4CC4)no3)n2)n[nH]1 |
| 2.37 | 2 (≈ 0.758 µg/mL) | Nc1ncnc2c1nc(Sc1nc3cccc(Cl)c3s1)n2CCO |
| 2.19 | 5.8 (≈ 3.13 µg/mL) | CCCN(CCO)CCCOc1ccc2c(Nc3cc(CC(=O)Nc4cccc(F)c4F)[nH]n3)ncnc2c1 |
| 1.94 | 3 (≈ 1.67 µg/mL) | CCN(CCO)CCCOc1cc2ncnc(Nc3cc(CC(=O)Nc4cccc(F)c4F)[nH]n3)c2cc1OC |
| 2.06 | 141 (≈ 76 µg/mL) | O=C(Cc1cc(Nc2ncnc3cc(OCCCN4CCC[C@@H]4CO)ccc23)n[nH]1)Nc1cccc(F)c1F |
| 2.18 | 174 (≈ 72.9 µg/mL) | CCCSc1nc(N2CCC[C@H](CC(=O)O)C2)ccc1C(=O)NC1CCCCC1 |
| 2 | 407 (≈ 168 µg/mL) | CC1(c2nc(N3CCOCC3)ncc2C(=O)N[C@H]2C3CC4CC2C[C@](O)(C4)C3)CC1 |
| 2 | 490 (≈ 230 µg/mL) | CCN(CCN(C)C)S(=O)(=O)c1ccc(-c2cnc(N)c(C(=O)Nc3cccnc3)n2)cc1 |
| 2 | 77.6 (≈ 32.4 µg/mL) | Cc1nc(C)c(-c2ccc3c(c2)CC[C@]32CC[C@@H](Cc3nnn[nH]3)CC2)nc1C(N)=O |
| 2.49 | 53.7 (≈ 15.7 µg/mL) | O=C(Nc1ccccc1O)c1cc([N+](=O)[O-])ccc1Cl |
| 2.49 | 759 (≈ 197 µg/mL) | Cc1nc2ccc(Cl)cn2c1-c1ccnc(N)n1 |

| logD (physchem [1]) | solubility thermodynamic (physchem [2]) [µM] | Compound |
| --- | --- | --- |
| 1.96 | 53.7 (≈ 15.6 µg/mL) | COc1ccc(C(=O)CS(=O)(=O)c2ccccc2)cc1 |
| 2.1 | 7.8 (≈ 3.41 µg/mL) | O=C(O)c1ccccc1Cn1nnc(-c2cccc(OCc3ccc4ccccc4n3)c2)n1 |
| 2.1 | 186 (≈ 76.1 µg/mL) | COc1cc(C(=O)O)ccc1Cn1ccc2ccc(NC(=O)OC3CCCC3)cc21 |
| 2.5 | 120 (≈ 49.8 µg/mL) | CN(C)CC(O)COc1ccc(Nc2nccc(Nc3cccc(Cl)c3)n2)cc1 (stereo not given) |
| 2.06 | 661 (≈ 396 µg/mL) | CS(=O)(=O)Nc1cccc(NC(=O)CN2CCN(C(=O)C[C@H](N)Cc3ccc(F)c(F)c3)[C@H](Cc3ccccc3)C2)c1 |
| 2.2 | 490 (≈ 255 µg/mL) | Cc1ccc(NC(=O)c2ccnc(N3CCOCC3)c2)cc1Nc1ccnc(OCC(C)(C)CN(C)C)n1 |
| 2.43 | 55 (≈ 16.7 µg/mL) | COC(=O)COc1ccc(C(=O)Nc2ccc(F)cc2)cn1 |
| 1.86 | 234 (≈ 61 µg/mL) | O=C(CS(=O)(=O)c1ccccc1)c1ccccc1 |
| 1.96 | 813 (≈ 461 µg/mL) | COc1cc2c(Nc3cc(CC(=O)Nc4cccc(F)c4F)[nH]n3)ncnc2cc1OCCCN1CCC[C@@H]1CO |
| 2.4 | 575 (≈ 280 µg/mL) | CN(C)CC(O)COc1ccc(Nc2nccc(N(CC#N)c3cc(Cl)ccc3Cl)n2)cc1 (stereo not given) |
| 2.15 | 219 (≈ 108 µg/mL) | CN(CCOc1ccc(C[C@H](Nc2ccccc2C(=O)c2ccccc2)C(=O)O)cc1)c1ccccn1 |
| 2.49 | 57.5 (≈ 25.2 µg/mL) | Cc1ncc(-c2nc(Nc3ccc(C(=O)N4CCN(C)CC4)cc3)ncc2F)n1C(C)C |
| 2.21 | 20.9 (≈ 7.93 µg/mL) | COCCOCCOc1ccc(-c2cc(C(N)=O)c(NC(N)=O)s2)cc1 |
| 2.43 | 851 (≈ 412 µg/mL) | Cc1ncc(-c2ccnc(Nc3ccc(S(=O)(=O)CCCN4CCOCC4)cc3)n2)n1C(C)C |
| 2.39 | 148 (≈ 62 µg/mL) | CC(=O)N1CCN(c2ccc(Nc3nccc(-c4cnc(C)n4C(C)C)n3)cc2)CC1 |
| 2.5 | 3 (≈ 1.27 µg/mL) | Cn1c(=O)n(Cc2ccc(C(=O)O)cc2)c(=O)c2cc(C#CCc3ccccc3)ccc21 |
| 2.41 | 275 (≈ 129 µg/mL) | Cc1ncc(-c2nc(Nc3ccc(C(=O)NC4CCN(C)CC4)c(F)c3)ncc2F)n1C(C)C |
| 2.55 | 11.5 (≈ 4.72 µg/mL) | COc1ccc(CNCc2ccc(-c3cc(C(N)=O)c(NC(N)=O)s3)cc2)cc1 |
| 2.42 | 17.4 (≈ 6.08 µg/mL) | Cc1cccc(NS(=O)(=O)c2ccc(-c3ccc(C#N)cc3)cc2)n1 |
| 2 | 57.5 (≈ 21.7 µg/mL) | Cc1nc(C)c(C(=O)N[C@@H](Cc2cccc(Cl)c2)C(=O)NCC#N)s1 |
| 2.4 | 851 (≈ 165 µg/mL) | CCOc1ccc2nc(N)sc2c1 |
| 2.34 | 2.5 (≈ 1.12 µg/mL) | Cc1cc(Oc2ccnc(Nc3ccc(S(N)(=O)=O)cc3)c2)c(-c2ccccn2)nc1C |
| 2.47 | 4.2 (≈ 1.56 µg/mL) | Cc1ccc(Oc2ccnc(Nc3ccc(S(N)(=O)=O)cc3)c2)c(C)n1 |
| 2 | 30.2 (≈ 14.8 µg/mL) | CCS(=O)(=O)c1ccc(Oc2cc3nc(-c4ccccn4)[nH]c3cc2CN2C(=O)CCC2=O)cc1 |
| 2.2 | 5.1 (≈ 2.79 µg/mL) | COc1cc(C(=O)NS(=O)(=O)c2ccccc2)ccc1Cn1ccc2ccc(NC(=O)OC3CCCC3)cc21 |

| Compound | logD (physchem [1]) | solubility thermodynamic (physchem [2]) [µM] |
| --- | --- | --- |
| O=C(c1ccc(F)cc1)C(O)c1ccc(F)cc1 (stereo not given) | 2.49 | 933 (≈ 232 µg/mL) |
